The conditions of data set [1]: human serum diluted 1:4 in RPMI 1640, 37 °C, peptide 10 μg/ml from DMSO stock, 48 h time course, ESI-MS peak area normalized to Angiotensin I. The protocol: Human serum was diluted 1:4 in Gibco RPMI 1640 media (ThermoFisher Scientific, Cat. No. 11–875–093) and incubated at 37 °C for 15 min before peptide stock was added at final concentration of 10 μg/ml. Time points were taken at room temperature and mixed with 200 μl of 3% TFA before a 15 min incubation on ice. Samples were centrifuged at 16,000g for 2.5 min and the supernatant was prepared for C18 desalting by adding 100 μl of 20% acetonitrile, 2% TFA before storage at −20 °C overnight. Samples were processed through Pierce C18 spin columns (ThermoFisher Scientific, Cat. No. 89870) according to the manufacturer’s instructions. Desalted samples were dried under nitrogen and stored at −20 °C until mass spectrometry analysis.
For MALDI-TOF-MS analysis, samples were reconstituted in 200 μl of 0.1% formic acid. Samples were diluted 1:10 in a MALDI matrix containing a 50 fmol/μl solution of Angiotensin I as a control, spotted onto the plate at a volume of 1 μl, and run on an Axima Performance MALDI TOF/TOF mass spectrometer (Shimadzu Scientific Instruments). Data was visualized with Axima Launchpad 2.8 software (Shimadzu Scientific Instruments). For ESI-MS analysis, samples were run on an Orbitrap Exploris 480 (ThermoFisher Scientific). […] ThermoFisher’s Xcalibur 4.0 Data System was used for peptide quantification via peak area (normalized based on Angiotensin I abundance).

In data set [2] the test system is OVCAR8 cells and human PBMCs co-culture, TNFα secretion. Nature of the data set: OVCAR8:PBMC co-culture, secreted TNFα (ELISA). It is filed as cell-based. The settings on record: 1:10 OVCAR8:PBMC, 24 h, MN1.4 500, 100 or 10 μM, rPD-L1 1 μM. The protocol: The concentration of PBMCs required for a 1:10 OVCAR8:PBMC ratio was calculated from the OVCAR8 concentration.
On the technique in general: ELISA stands for enzyme-linked immunosorbent assay.

Peptide text beside a SMILES is read from it.

Here are results for three compounds from paper PMC10663846 (The Journal of Biological Chemistry, 2023).

Turning to `CC[C@H](C)[C@H](NC(=O)[C@H](CCSC)NC(=O)[C@H](CS)NC(=O)[C@H](CCCNC(=N)N)NC(=O)[C@H](Cc1ccc(O)cc1)NC(C)=O)C(=O)N[C@@H](CO)C(=O)N[C@@H](Cc1ccc(O)cc1)C(=O)NCC(=O)NCC(=O)N[C@@H](C)C(=O)N[C@@H](CC(=O)O)C(=O)N[C@@H](Cc1ccc(O)cc1)C(=O)N[C@@H](CCCCN)C(=O)N[C@@H](CCCNC(=N)N)C(=O)N[C@H](C(=O)N[C@H](C(=O)N[C@H](C(N)=O)C(C)C)[C@@H](C)O)[C@@H](C)CC`, the serum modification products (MALDI-TOF-MS) turned out to be 119 Da. With `CC[C@H](C)[C@@H]1NC(=O)[C@H](CCSC)NC(=O)[C@H](C)NC(=O)[C@H](CCCNC(=N)N)NC(=O)[C@@H](NC(C)=O)CSSC[C@@H](C(N)=O)NC(=O)[C@H]([C@@H](C)O)NC(=O)[C@H]([C@@H](C)CC)NC(=O)[C@H](CCCNC(=N)N)NC(=O)[C@H](CCCCN)NC(=O)[C@H](Cc2ccc(O)cc2)NC(=O)[C@H](CC(=O)O)NC(=O)[C@H](C)NC(=O)CNC(=O)CNC(=O)[C@H](Cc2ccc(O)cc2)NC(=O)[C@H](CO)NC1=O` [MN1.2] (HELM PEPTIDE1{[ac].C.R.A.M.I.S.Y.G.G.A.D.Y.K.R.I.T.C.[am]}$PEPTIDE1,PEPTIDE1,2:R3-18:R3$$$V2.0), in data set [1], the “serum stability, degradation after 48 h” value is given as “detected at very low levels”. On to Ac-YRCMISYGGADEKRITV-NH2 [MN_Null], for which the “TNFα levels compared to untreated co-culture control” value in data set [2] is given as “less immunosuppressive activity as compared to MN1.4”.
